Drawing on patent publication US20260285863A1, “COMPOUNDS CAPABLE OF MODULATING GPR65” (Pathios Therapeutics Limited, priority 2023, published 2026), this text covers IC50 for 20 molecules.

Each structure is given as a SMILES string.

T1 sequence (Q8IYL9 whole entry): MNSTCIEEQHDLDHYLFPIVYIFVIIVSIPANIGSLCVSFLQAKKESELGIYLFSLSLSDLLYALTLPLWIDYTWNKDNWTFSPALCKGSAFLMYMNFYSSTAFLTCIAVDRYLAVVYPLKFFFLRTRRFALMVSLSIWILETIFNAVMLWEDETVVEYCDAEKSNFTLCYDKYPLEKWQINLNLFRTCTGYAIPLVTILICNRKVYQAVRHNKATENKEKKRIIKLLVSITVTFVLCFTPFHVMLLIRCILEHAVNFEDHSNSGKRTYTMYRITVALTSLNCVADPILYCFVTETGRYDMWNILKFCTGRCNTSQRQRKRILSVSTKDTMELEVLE

This assay concerns the target T1, human recombinant GPR65 (Homo sapiens, UniProt Q8IYL9).
T1 construct: host or cells: 1321N1 human astrocytoma cells (1321N1-hrGPR65)
In words: Human GPR65 cAMP HTRF antagonist assay. Type of assay: cell-based. Particulars: 1321N1-hrGPR65 cells, assay pH 7.2, cAMP HTRF; read-out: hGPR65 IC50. From the text: The “Human GPR65 cyclic adenosine monophosphate (cAMP) Homogeneous Time Resolved Fluorescence (HTRF) antagonist assay”, or simply “cAMP assay”, as described in the accompanying examples, can be used to measure the potency of GPR65 modulators, which is expressed as the concentration of compound required to reduce the increase in cAMP concentration upon GPR65 activation by 50% (i.e. an IC50).
Human GPR65 Cyclic Adenosine Monophosphate (cAMP) Homogeneous Time Resolved Fluorescence (HTRF) Antagonist Assay Procedure
IC50data was obtained by the following procedure:
1321N1 human astrocytoma cells stably expressing human recombinant GPR65 (1321N1-hrGPR65 cells, EuroscreenFast) were cultured according to the vendor's instructions.
Compounds were tested for their ability to antagonise GPR65, through measuring the concentration of cytoplasmic cAMP following treatment of the cells at a pH of 7.2 to activate GPR65 signalling and addition of the compound to be tested. The extent to which the expected rise in cAMP concentration upon GPR65 activation was suppressed by the added compound is indicative of its potency. The assay was carried out according to EuroscreenFast assay Methodology as follows.
On the day of the assay, test compounds were added to 384-well, low volume, white microtiter plates by acoustic dispensing. KRH buffer (5 mM KCl, 1.25 mM MgSO4, 124 mM NaCl, 25 mM HEPES, 13.3 mM Glucose, 1.25 mM KH2PO4 and 1.45 mM CaCl2) was adjusted to pH 6.5, pH 7.6 and pH 8.4 by adding NaOH. 1321N1-hGPR65 cells were rapidly thawed and diluted in KRH, pH 7.6 prior to centrifugation at 300×g for 5 min and resuspension in assay buffer (KRH, pH 7.6, supplemented with 1 mM 3-isobutyl-1-methylxanthine (IBMX) and 200 μM ethylenediaminetetraacetic acid (EDTA)). Cells were added to assay plates at a density of 2,000 cells per well in a volume of […]. Assay plates were briefly centrifuged at 100×g and then incubated at room temperature for 30 min. Cells were stimulated by the addition of 5 μL KRH, pH 6.5, to achieve an assay pH of 7.2, while control wells received […] KRH, pH 8.4 to achieve an assay pH of 7.9. Assay plates were briefly centrifuged at 100×g and then incubated at room temperature for 30 min.
Accumulation of cAMP was detected by cAMP HTRF kit (Cisbio). d2-labeled cAMP and cryptate-labeled anti-cAMP antibody in Lysis and Detection Buffer (Cisbio) were added to assay plates, and the plates were incubated at room temperature for 1 h. HTRF measurements were performed using a Pherastar FSX instrument. Acceptor and donor emission signals were measured at 665 nm and 620 nm, respectively, and HTRF ratios were calculated as signal665 nm/signal620 nm×104. Data were normalised to high and low control values and fitted with 4-parameter logistic regression to determine hGPR65 IC50 values for the test compounds, which are shown in Table 1.
A general note: TR-FRET usually uses a lanthanide donor and a delayed reading to cut background.
Broadly, the IC50 is the concentration needed to halve the response being measured. On to `O=C(Nc1cc(Cl)c(C(F)(F)F)cc1F)N1[C@H]2CC[C@@H]1c1ccncc1C2` [Compound 50, (5R,8S)-N-(5-chloro-2-fluoro-4-(trifluoromethyl)phenyl)-6,7,8,9-tetrahydro-5H-5,8-epiminocyclohepta[c]pyridine-10-carboxamide], for which the IC50 is less than 500 nM.
Consider `Cn1ccc2cc(-c3cc(F)c(NC(=O)N4[C@H]5CC[C@@H]4c4c[nH]c(=O)cc4C5)cc3Cl)ccc21` [Compound 26, (6S,9R)-N-(5-chloro-2-fluoro-4-(1-methyl-1H-indol-5-yl)phenyl)-3-oxo-3,5,6,7,8,9-hexahydro-2H-6,9-epiminocyclohepta[c]pyridine-10-carboxamide], for which the IC50 is less than 500 nM.
With `O=C(Nc1cc(Cl)c(-c2ccc3nonc3c2)cn1)N1[C@@H]2CC[C@H]1[C@@H](F)c1c2ccnc1F` [Compound 76, (5R,8S,9S)-N-(5-(Benzo[c][1,2,5]oxadiazol-5-yl)-4-chloropyridin-2-yl)-1,9-difluoro-6,7,8,9-tetrahydro-5H-5,8-epiminocyclohepta[c]pyridine-10-carboxamide], the IC50 was less than 500 nM.
As for `O=C(Nc1cc(Cl)c(C(F)(F)F)cn1)N1C2CCC1[C@H](F)c1c2ccnc1F` (mixture of isomers) [Compound 33, (±)(9S)-N-(4-chloro-5-(trifluoromethyl)pyridin-2-yl)-1,9-difluoro-6,7,8,9-tetrahydro-5H-5,8-epiminocyclohepta[c]pyridine-10-carboxamide], the IC50 was less than 500 nM.
For `O=C(Nc1cc(Cl)c(-c2ccc(OCC3(F)CC3)nc2)cc1F)N1[C@H]2CC[C@@H]1c1n[nH]c(=O)cc1C2` [Compound 86, (6S,9R)-N-(5-Chloro-2-fluoro-4-(6-((1-fluorocyclopropyl)methoxy)pyridin-3-yl)phenyl)-3-oxo-3,5,6,7,8,9-hexahydro-2H-6,9-epiminocyclohepta[c]pyridazine-10-carboxamide] the value was less than 500 nM; for `N#Cc1cc(NC(=O)N2[C@H]3CC[C@@H]2c2ccnc(F)c2C3)c(F)cc1Cl` [Compound 45, (5R,8S)-N-(4-chloro-5-cyano-2-fluorophenyl)-1-fluoro-6,7,8,9-tetrahydro-5H-5,8-epiminocyclohepta[c]pyridine-10-carboxamide], less than 500 nM; for `Cc1nc2cc(-c3cc(F)c(NC(=O)N4[C@H]5CC[C@@H]4c4c[nH]c(=O)cc4C5)cc3Cl)ccc2n1C` [Compound 19, (6S,9R)-N-(5-chloro-4-(1,2-dimethyl-1H-benzo[d]imidazol-5-yl)-2-fluorophenyl)-3-oxo-3,5,6,7,8,9-hexahydro-2H-6,9-epiminocyclohepta[c]pyridine-10-carboxamide], 500 to 5000 nM.
As for `O=C(Nc1cc(Cl)c(-c2ccc(OCC3CC3(F)F)nc2)cc1F)N1[C@H]2CC[C@@H]1c1c[nH]c(=O)cc1C2` (stereo partly drawn) [Compound 38, (6S,9R)-N-(5-chloro-4-(6-((2,2-difluorocyclopropyl)methoxy)pyridin-3-yl)-2-fluorophenyl)-3-oxo-3,5,6,7,8,9-hexahydro-2H-6,9-epiminocyclohepta[c]pyridine-10-carboxamide], the IC50 was less than 500 nM.
As to `O=C(Nc1cc(Cl)c(C(F)(F)F)cc1F)N1[C@H]2CC[C@@H]1c1cc[n+]([O-])cc1C2` [Compound 67, (5R,8S)-10-((5-chloro-2-fluoro-4-(trifluoromethyl)phenyl)carbamoyl)-6,7,8,9-tetrahydro-5H-5,8-epiminocyclohepta[c]pyridine 2-oxide], the IC50 was less than 500 nM.
For the molecule `O=C(Nc1cc(Cl)c(Cl)cc1F)N1[C@H]2CC[C@@H]1c1ccncc1C2` [Compound 49, (5R,8S)-N-(4,5-dichloro-2-fluorophenyl)-6,7,8,9-tetrahydro-5H-5,8-epiminocyclohepta[c]pyridine-10-carboxamide], the IC50 was less than 500 nM.
On to `O=C(Nc1cc(Cl)c(-c2ccc(OCC(F)(F)F)nn2)cc1F)N1[C@H]2CC[C@@H]1c1c[nH]c(=O)cc1C2` [Compound 12, (6S,9R)-N-(5-chloro-2-fluoro-4-(6-(2,2,2-trifluoroethoxy)pyridazin-3-yl)phenyl)-3-oxo-3,5,6,7,8,9-hexahydro-2H-6,9-epiminocyclohepta[c]pyridine-10-carboxamide], for which the IC50 was less than 500 nM.
With `O=C(Nc1cc(Cl)c(-c2ccc(OCC(F)(F)F)nc2)cc1F)N1[C@@H]2CC[C@H]1C(F)(F)c1c2ccnc1F` [Compound 71, (5R,8S)-N-(5-Chloro-2-fluoro-4-(6-(2,2,2-trifluoroethoxy)pyridin-3-yl)phenyl)-1,9,9-trifluoro-6,7,8,9-tetrahydro-5H-5,8-epiminocyclohepta[c]pyridine-10-carboxamide], the IC50 is less than 500 nM.
Regarding `O=C(Nc1cc(Cl)c(NCc2cccc(OCC(F)(F)F)n2)cc1F)N1[C@H]2CC[C@@H]1c1n[nH]c(=O)cc1C2` [Compound 64, (6S,9R)-N-(5-chloro-2-fluoro-4-(((6-(2,2,2-trifluoroethoxy)pyridin-2-yl)methyl)amino)phenyl)-3-oxo-3,5,6,7,8,9-hexahydro-2H-6,9-epiminocyclohepta[c]pyridazine-10-carboxamide], the IC50 was less than 500 nM.
For `Cc1cc(-c2cc(F)c(NC(=O)N3[C@H]4CC[C@@H]3c3c[nH]c(=O)cc3C4)cc2Cl)cc2nsnc12` [Compound 24, (6S,9R)-N-(5-chloro-2-fluoro-4-(7-methylbenzo[c][1,2,5]thiadiazol-5-yl)phenyl)-3-oxo-3,5,6,7,8,9-hexahydro-2H-6,9-epiminocyclohepta[c]pyridine-10-carboxamide] the value was less than 500 nM; for `O=C(Nc1cc(Cl)c(-c2ccc(OC[C@@H]3CCOC3)nc2)cc1F)N1[C@H]2CC[C@@H]1c1n[nH]c(=O)cc1C2` [Compound 79, (6S,9R)-N-(5-Chloro-2-fluoro-4-(6-(((R)-tetrahydrofuran-3-yl)methoxy)pyridin-3-yl)phenyl)-3-oxo-3,5,6,7,8,9-hexahydro-2H-6,9-epiminocyclohepta[c]pyridazine-10-carboxamide], less than 500 nM; for `O=C(Nc1cc(Cl)c(Cl)cn1)N1C2CCC1C(F)(F)c1c2ccnc1F` (racemic) [Compound 36, (±)-N-(4,5-dichloropyridin-2-yl)-1,9,9-trifluoro-6,7,8,9-tetrahydro-5H-5,8-epiminocyclohepta[c]pyridine-10-carboxamide], less than 500 nM.
Consider `O=C(Nc1cc(Cl)c(-c2ccc(OC[C@@H]3CC3(F)F)nc2)cc1F)N1[C@H]2CC[C@@H]1c1n[nH]c(=O)cc1C2` [Compound 83, (6S,9R)-N-(5-Chloro-4-(6-(((S)-2,2-difluorocyclopropyl)methoxy)pyridin-3-yl)-2-fluorophenyl)-3-oxo-3,5,6,7,8,9-hexahydro-2H-6,9-epiminocyclohepta[c]pyridazine-10-carboxamide], for which the IC50 was less than 500 nM.
As to `COCCO[C@H]1C[C@@H](Oc2ccc(-c3cc(F)c(NC(=O)N4[C@H]5CC[C@@H]4c4c[nH]c(=O)cc4C5)cc3Cl)cn2)C1` [Compound 23, (6S,9R)-N-(5-chloro-2-fluoro-4-(6-((1s,3S)-3-(2-methoxyethoxy)cyclobutoxy)pyridin-3-yl)phenyl)-3-oxo-3,5,6,7,8,9-hexahydro-2H-6,9-epiminocyclohepta[c]pyridine-10-carboxamide], the IC50 was less than 500 nM.
For the molecule `O=C(Nc1cc(Cl)c(-c2ccc(OC3CCN(CC(F)(F)F)C3)nc2)cc1F)N1[C@H]2CC[C@@H]1c1c[nH]c(=O)cc1C2` (stereo partly drawn) [Compound 27, (6S,9R)-N-(5-chloro-2-fluoro-4-(6-((1-(2,2,2-trifluoroethyl)pyrrolidin-3-yl)oxy)pyridin-3-yl)phenyl)-3-oxo-3,5,6,7,8,9-hexahydro-2H-6,9-epiminocyclohepta[c]pyridine-10-carboxamide], the IC50 is less than 500 nM.
For the molecule `O=C(Nc1cc(Cl)c(-c2ccc(OCC34COC(C3)C4)nc2)cc1F)N1[C@H]2CC[C@@H]1c1n[nH]c(=O)cc1C2` [Compound 1, (6S,9R)-N-(4-(6-((2-oxabicyclo[2.1.1]hexan-4-yl)methoxy)pyridin-3-yl)-5-chloro-2-fluorophenyl)-3-oxo-3,5,6,7,8,9-hexahydro-2H-6,9-epiminocyclohepta[c]pyridazine-10-carboxamide], the IC50 is less than 500 nM.
